The test system of one data set is KB. In words: Cytotoxicity against human KB cells. Format: functional.
The nature of data set [1]: Cytotoxicity against african green monkey Vero cells after 24 hrs. To be noted: chlorocebus sabaeus, read-out: ED50. It is filed as cell-based.

Converted amounts (≈) assume the structure as drawn.

Compound `CCCCCCCCCC[C@@H](O)[C@@H](O)CC[C@H](O)[C@@H]1CC[C@@H]([C@@H](O)CCCCCCCCCCC(O)CC2=CC(C)(O)OC2=O)O1` (stereo not given in full) [PARISIN] displayed an ED50 in the data set with KB of 1 ×10⁻⁴ ug/ml. On to `CC[C@]1(O)C[C@@H]2CN(CCc3c([nH]c4ccccc34)[C@@](C(=O)OC)(c3cc4c(cc3OC)N(C)[C@H]3[C@@](O)(C(=O)OC)[C@H](OC(C)=O)[C@]5(CC)C=CCN6CC[C@]43[C@@H]65)C2)C1` [VINBLASTINE], for which the CC50 at 24 h in data set [1] is more than 0.1 µg/mL. In the data set with KB, this compound registered an ED50 of 0.1 ×10⁻⁴ ug/ml. Consider `CCCCC[C@H](O)[C@@H](O)CCC[C@@H](O)[C@@H]1CC[C@@H](C2CC(O)[C@@H]([C@@H](O)CCCCCCCCCCCCC3=CC(C)OC3=O)O2)O1` (stereo not given in full) [SALZMANOLIN], for which the CC50 at 24 h in data set [1] was 0.01 µg/mL (≈ 0.0153 µM). Further, the EC50 in the data set with KB (Homo sapiens, KB, read-out: ED50 (the source's name)) is 0.001 µg/mL (≈ 0.00153 µM).

The values above are taken from ChEMBL document CHEMBL1146526, “Two unusual acetogenins from the roots of Annona salzmanii” (J Nat Prod, 2003).
